Reference: US20070254881A1, “Pyrazole Derivative” (DAIICHI PHARMACEUTICAL CO., LTD., priority 2004, published 2007)
Read-outs that look alike come from different tables or passages of the source.

Tests used:
[1] = molecular target: T1, Cyclooxygenase-1 (COX-1) (Ovis aries, UniProt P05979); experiment: COX-1 inhibition, COX Inhibitor Screening Assay Kit (PGF2α production, ELISA); type: biochemical; details: compound 50 μM
T1 construct: purchased Cayman Chemical Company 560101
T1 sequence (P05979 25-600): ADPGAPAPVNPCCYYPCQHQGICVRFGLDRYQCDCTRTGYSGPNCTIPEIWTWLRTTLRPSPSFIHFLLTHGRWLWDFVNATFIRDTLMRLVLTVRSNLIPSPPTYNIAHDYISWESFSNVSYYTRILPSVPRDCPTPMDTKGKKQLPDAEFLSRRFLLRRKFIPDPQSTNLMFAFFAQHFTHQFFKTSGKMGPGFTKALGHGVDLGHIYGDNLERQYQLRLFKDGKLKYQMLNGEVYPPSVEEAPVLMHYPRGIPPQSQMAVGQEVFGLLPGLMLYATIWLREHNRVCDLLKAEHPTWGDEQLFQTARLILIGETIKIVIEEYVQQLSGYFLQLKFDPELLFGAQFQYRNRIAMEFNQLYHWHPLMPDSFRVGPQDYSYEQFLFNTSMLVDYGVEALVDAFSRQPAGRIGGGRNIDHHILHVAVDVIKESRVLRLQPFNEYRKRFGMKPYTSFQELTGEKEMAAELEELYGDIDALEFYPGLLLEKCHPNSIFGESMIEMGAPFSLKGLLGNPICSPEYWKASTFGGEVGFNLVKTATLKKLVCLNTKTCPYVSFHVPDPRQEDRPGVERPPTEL
Excerpt: (§1) For the measurement of the inhibitory activity of the compounds obtained in the Examples against COX-1 and COX-2, a COX Inhibitor Screening Assay Kit manufactured by Cayman Chemical Company (Catalog Nos. 560101 and 560121) was used.
(§2) Before starting the measurement, a reaction buffer, heme, arachidonic acid, SnCl2, EIA buffer, a washing buffer, prostaglandin (PG)-screening EIA standard solution, PG-screening acetylcholinesterase (AchE), a tracer […], and PG-screening EIA antiserum were provided.
A reaction solution containing a compound of the Examples (50 μM) and COX-1, or a reaction solution containing a compound of the Examples (300 μM) and COX-2 was allowed to stand at 37° C. for 10 minutes, then 10 μl of arachidonic acid was added thereto, and the resultant mixture was allowed to stand at 37° C. for 2 minutes. After the reaction, 50 μl of 1 N hydrochloric acid was added to the reaction mixture to stop the reaction, and 100 μl of a SnCl2 solution was added thereto. The resultant mixture was allowed to stand at room temperature for 5 minutes.
50 μl of antiserum (rabbit anti-PGF2α antibody) was added to each well of a 96-well plate coated with mouse anti-rabbit IgG. Then, 50 μl of a solution prepared by diluting the reaction solution for PGF2α production to 2000-folds, and 50 μl of an AchE tracer were added sequentially to the wells, and the plate was kept at room temperature for 18 hours. Each well washed 5 times with the washing buffer to remove excessive AchE tracer, and then 200 μl of Ellman reagent was added to each well. The plate was kept in the dark room for 60 minutes, and then, absorbance at 405 nm was measured.
A standard curve was produced using a PG-screening EIA standard solution, and the amount of PGF2α production was determined from the absorbance obtained as described above. The COX-1 inhibition rate at 50 μM of the compound of the Examples, and the COX-2 inhibition rate at 300 μM of the compound of the Examples were calculated.

[2] = system: collagen-induced platelet aggregation; experiment: Platelet aggregation suppressing effect (collagen-induced aggregation in platelet rich plasma); type: cell-based; details: human PRP, 37° C., collagen as inducer, read-out: Inhibitory effect of collagen-induced platelet aggregation IC50
Protocol: Human blood was collected using 3.13% sodium citrate in a volume 1/10 of the blood volume, as an anticoagulant. The collected blood was centrifuged at 180 g for 10 minutes to separate platelet rich plasma (PRP) from the blood. After collecting the PRP fraction in the upper layer, the lower layer was further centrifuged at 1600 g for 10 minutes to fractionate platelet poor plasma (PPP) in the upper layer. One μl of a solution of a compound obtained in the Examples was added to 200 μl of PRP, and the mixture was allowed to stand at 37° C. for 2 minutes. Subsequently, 2 μl of collagen was added thereto, so as to induce platelet aggregation. The platelet aggregation rate was measured using PAM-12C(SSR Engineering, Inc.).

[3] = molecular target: T2, Cyclooxygenase-2 (COX-2) (Homo sapiens, UniProt P35354); experiment: COX-2 inhibition, COX Inhibitor Screening Assay Kit (PGF2α production, ELISA); type: biochemical; details: compound 300 μM
T2 construct: purchased Cayman Chemical Company 560121
T2 sequence (P35354 18-604): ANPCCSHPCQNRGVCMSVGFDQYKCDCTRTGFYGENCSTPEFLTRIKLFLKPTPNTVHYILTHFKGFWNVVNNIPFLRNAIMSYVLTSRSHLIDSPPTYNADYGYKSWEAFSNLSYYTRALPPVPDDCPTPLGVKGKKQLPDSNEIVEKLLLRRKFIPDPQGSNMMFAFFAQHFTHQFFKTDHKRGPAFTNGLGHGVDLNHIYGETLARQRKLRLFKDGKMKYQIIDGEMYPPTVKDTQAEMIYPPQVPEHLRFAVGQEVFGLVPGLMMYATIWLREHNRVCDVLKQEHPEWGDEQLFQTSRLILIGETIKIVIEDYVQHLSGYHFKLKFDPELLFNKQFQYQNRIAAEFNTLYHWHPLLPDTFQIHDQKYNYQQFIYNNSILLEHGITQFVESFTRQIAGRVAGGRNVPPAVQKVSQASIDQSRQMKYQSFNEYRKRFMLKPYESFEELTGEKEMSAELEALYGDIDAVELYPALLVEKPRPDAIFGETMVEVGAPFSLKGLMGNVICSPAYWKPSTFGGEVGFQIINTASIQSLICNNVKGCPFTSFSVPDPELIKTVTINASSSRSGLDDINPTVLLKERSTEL
Excerpt: as §1, §2
A reaction solution containing a compound of the Examples (50 μM) and COX-1, or a reaction solution containing a compound of the Examples (300 μM) and COX-2 was allowed to stand at 37° C. for 10 minutes, then 10 μl of arachidonic acid was added thereto, and the resultant mixture was allowed to stand at 37° C. for 2 minutes. […]
50 μl of antiserum (rabbit anti-PGF2α antibody) was added to each well of a 96-well plate coated with mouse anti-rabbit IgG. […] The plate was kept in the dark room for 60 minutes, and then, absorbance at 405 nm was measured.
A standard curve was produced using a PG-screening EIA standard solution, and the amount of PGF2α production was determined from the absorbance obtained as described above. […]

[4] = system: collagen-induced platelet aggregation; details: background art, cited from earlier work

| Structure (SMILES) | COX-1 inhibitory action at 50 μM (% inhibition) [1] | IC50 [2] | COX-2 inhibitory action at 300 μM (% inhibition) [3] | IC50 ([4]; read-out: IC50 value against collagen-induced platelet aggregation) | platelet aggregation inhibitory action compared with inhibitory activity against COX-2 [4] |
| --- | --- | --- | --- | --- | --- |
| COc1ccc(-n2nc(C(=O)N3CCCC(OC)C3)cc2-c2ccccn2)cn1 (centres unmarked) [Example 34, 1-[1-(6-Methoxy-3-pyridyl)-5-(2-pyridyl)-1H-pyrazole-3-carbonyl]-3-methoxypiperidine] | −18.4 % inhibition | 63 nM |  |  |  |
| COc1ccc(-n2nc(C(=O)N3CCN(C)C(=O)C3)cc2-c2ccn(C)n2)cn1 [Example 36, 1-[1-(6-Methoxy-3-pyridyl)-5 (1-methyl-1H-pyrazol-3-yl)-1H-pyrazole-3-carbonyl]-4-methyl-3-oxopiperazine] | 1.2 % inhibition | 370 nM |  |  |  |
| COc1ccc(-n2nc(C(=O)N3CCOCC3)cc2-c2cc[nH]c2)nn1 [Example 41, 1-[1-(6-Methoxy-3-pyridazinyl)-5-(1H-pyrrol-3-yl)-1H-pyrazole-3-carbonyl]morpholine] | −21.3 % inhibition | 170 nM |  |  |  |
| COc1ccc(-n2nc(C(=O)N3CCC(OC)CC3)cc2-c2cn(C)cn2)cn1 [Example 73, 1-[1-(6-Methoxy-3-pyridyl)-5-(1-methyl-1H-imidazol-4-yl)-1H-pyrazole-3-carbonyl]-4-methoxypiperidine] | 5.9 % inhibition | 150 nM | 15.5 % inhibition |  |  |
| COc1ccc(-n2nc(C(=O)N3CCOC[C@@H]3C)cc2-c2ccccn2)nn1 [Example 105, (+)(3S)-4-[1-(6-Methoxypyridazin-3-yl)-5-(2-pyridyl)-1H-pyrazole-3-carbonyl]-3-methylmorpholine] | −9.6 % inhibition | 440 nM |  |  |  |
| COc1ccc(-n2nc(C(=O)N3CCOC[C@H]3C)cc2-c2ccccn2)nn1 [Example 107, (−)(3R)-4-[1-(6-Methoxypyridazin-3-yl)-5-(2-pyridyl)-1H-pyrazole-3-carbonyl]-3-methylmorpholine] | −3.9 % inhibition | 430 nM |  |  |  |
| COc1ccc(-n2nc(C(=O)N3CCOCC3)cc2-c2cnn(C)c2)cn1 [Example 115, 4-[1-(6-Methoxy-3-pyridyl)-5-(1-methyl-1H-pyrazol-4-yl)-1H-pyrazole-3-carbonyl]morpholine] | −21.2 % inhibition | 110 nM | 23.4 % inhibition |  |  |
| COc1ccc(-n2nc(C(=O)N3CCOCC3)cc2-c2cscn2)cn1 [Example 118, 4-[1-(6-Methoxy-3-pyridyl)-5-(thiazol-4-yl)-1H-pyrazole-3-carbonyl]morpholine] | −12.7 % inhibition | 79 nM |  |  |  |
| COc1ccc(-n2nc(C(=O)N3CCC(OC)CC3)cc2-c2cnn(C)c2)cn1 [Example 119, 1-[1-(6-Methoxy-3-pyridyl)-5-(1-methyl-1H-pyrazol-4-yl)-1H-pyrazole-3-carbonyl]-4-methoxypiperidine] | 13.0 % inhibition | 160 nM |  |  |  |
| COc1ccc(-n2nc(C(=O)N3CCN(C)C(=O)C3)cc2-c2cnn(C)c2)cn1 [Example 121, 1-[1-(6-Methoxy-3-pyridyl)-5-(1-methyl-1H-pyrazol-4-yl)-1H-pyrazole-3-carbonyl]-4-methyl-3-oxopiperazine] | −0.7 % inhibition | 710 nM |  |  |  |
| COc1ccc(-n2nc(C(=O)N3CCN(C)C(=O)C3)cc2-c2ccn(C)c2)nn1 [Example 124, 1-[1-(6-Methoxy-3-pyridazinyl)-5-(1-methyl-1H-pyrrol-3-yl)-1H-pyrazole-3-carbonyl]-4-methyl-3-oxopiperazine] | 8.3 % inhibition | 440 nM |  |  |  |
| COc1ccc(-n2nc(C(=O)N3CCN(C)C(=O)C3)cc2-c2cscn2)cn1 [Example 126, 1-[1-(6-Methoxy-3-pyridyl)-5-(thiazol-4-yl)-1H-pyrazole-3-carbonyl]-4-methyl-3-oxopiperazine] | −6.4 % inhibition | 360 nM |  |  |  |
| COc1ccc(-n2nc(C(=O)N3CCN(C)CC3)cc2-c2cscn2)cn1 [Example 127, 1-[1-(6-Methoxy-3-pyridyl)-5-(thiazol-4-yl)-1H-pyrazole-3-carbonyl]-4-methylpiperazine] | −21.2 % inhibition | 230 nM |  |  |  |
| COc1ccc(-n2nc(C(=O)N3CCC(F)(F)CC3)cc2-c2cnn(C)c2)nn1 [Example 141, 1-[1-(6-Methoxy-3-pyridazinyl)-5-(1-methyl-1H-pyrazol-4-yl)-1H-pyrazole-3-carbonyl]-4,4-difluoropiperidine] | 24.4 % inhibition | 190 nM |  |  |  |
| CS(=O)(=O)c1ccc(-c2cc(C#N)nn2-c2ccc(F)cc2)cc1 [compound (A)] |  |  |  | 5300 nM |  |
| COc1ccc(-c2cc(C(F)F)nn2-c2ccc(S(N)(=O)=O)cc2)cc1F [compound (B)] |  |  |  |  | not as strong as the inhibitory activity of the compound against COX-2 |
